According to US12077503B2, “Substituted cyclic amides and their use as herbicides” (FMC CORPORATION, priority 2015, dated 2024):

How the values were obtained:
Format in all cases: in vivo
[1] = system: Galium (catchweed bedstraw, Galium aparine); assay: Test C preemergence; conditions: for Plant response rating (scale of 0 to 100), Galium: 0 is no effect, 100 is complete control; for Plant response rating, Galium: scale 0 to 100, 0 no effect, 100 complete control
How it was run: (§1)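 Visual 0 (no effect) to 100 (complete control) ratings versus controls, taken 13–15 d after treatment in the greenhouse; dash means no result. Compounds in a surfactant-containing non-phytotoxic solvent blend were applied preemergence to seeds in loam-sand soil or postemergence to 1- to 4-leaf plants (2–18 cm) in peat-based medium.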

corn (Zea mays) = assay: Test C preemergence; conditions: for Plant response rating (scale of 0 to 100), Corn: 0 is no effect, 100 is complete control; for Plant response rating, Corn: scale 0 to 100, 0 no effect, 100 complete control
How it was run: as §1

[2] = system: johnsongrass (Sorghum halepense); assay: Test C preemergence; conditions: for Plant response rating (scale of 0 to 100), Johnsongrass: 0 is no effect, 100 is complete control; for Plant response rating, Johnsongrass: scale 0 to 100, 0 no effect, 100 complete control
How it was run: as §1

[3] = system: morningglory (Ipomoea coccinea); assay: Test C preemergence; conditions: for Plant response rating (scale of 0 to 100), Morningglory: 0 is no effect, 100 is complete control; for Plant response rating, Morningglory: scale 0 to 100, 0 no effect, 100 complete control
How it was run: as §1

[4] = system: nutsedge, yellow (yellow nutsedge, Cyperus esculentus); assay: Test C preemergence; conditions: for Plant response rating (scale of 0 to 100), Nutsedge, Yellow: 0 is no effect, 100 is complete control; for Plant response rating, Nutsedge, Yellow: scale 0 to 100, 0 no effect, 100 complete control
How it was run: as §1

[5] = system: pigweed (Amaranthus retroflexus); assay: Test C preemergence; conditions: for Plant response rating (scale of 0 to 100), Pigweed: 0 is no effect, 100 is complete control; for Plant response rating, Pigweed: scale 0 to 100, 0 no effect, 100 complete control
How it was run: as §1

[6] = system: ragweed (common ragweed, Ambrosia elatior); assay: Test C preemergence; conditions: for Plant response rating (scale of 0 to 100), Ragweed: 0 is no effect, 100 is complete control; for Plant response rating, Ragweed: scale 0 to 100, 0 no effect, 100 complete control
How it was run: as §1

[7] = system: wheat (winter wheat, Triticum aestivum); assay: Test C preemergence; conditions: for Plant response rating (scale of 0 to 100), Wheat: 0 is no effect, 100 is complete control; for Plant response rating, Wheat: scale 0 to 100, 0 no effect, 100 complete control
How it was run: as §1

[8] = system: beggarticks (hairy beggarticks, Bidens pilosa); assay: Test E preemergence; conditions: scale 0 to 100
Description: (§2) Seeds of plant species selected from corn (Zea mays), soybean (Glycine max), velvetleaf (Abutilon theophrasti), lambsquarters (Chenopodium album), poinsettia, wild (wild poinsettia, Euphorbia heterophylla), pigweed, palmer (palmer pigweed, Amaranthus palmeri), waterhemp (common waterhemp, Amaranthus rudis), surinam grass (Brachiaria decumbens), crabgrass, large (large crabgrass, Digitaria sangumnalis), crabgrass, Brazil (Brazilian crabgrass, Digitaria horizontalis), Panicum, fall (fall Panicum, Panicum dichotomiflorum), foxtail, giant (giant foxtail, Setaria faberii), foxtail, green (green foxtail, Setaria viridis), goosegrass (Eleusine indica), johnsongrass (Sorghum halepense), ragweed (common ragweed, Ambrosia elatior), barnyardgrass (Echinochloa crus-galli), sandbur (southern sandbur, Cenchrus echinatus), arrowleaf Sida (Sida rhombifolia), ryegrass, Italian (Italian ryegrass, Lolium multiflorum), dayflower, VA (Virginia dayflower, Commelina virginica), field bindweed (Convolvulus arvensis), morningglory (Ipomoea coccinea), nightshade (eastern black nightshade, Solanum ptycanthum), Kochia (Kochia scoparia), nutsedge, yellow (yellow nutsedge, Cyperus esculentus), horseweed (Conyza canadensis), and beggarticks (hairy beggarticks, Bidens pilosa), were planted into a silt loam soil and treated preemergence with test chemicals formulated in a non-phytotoxic solvent mixture which included a surfactant.
(§3) At the same time, plants selected from these crop and weed species were planted in pots containing Sunshine Redi-Earth planting medium comprising spaghnum peat moss, vermiculite, starter nutrients and dolomitic limestone and treated with postemergence applications of a test chemical formulated in the same manner. Plants ranged in height from 2 to 18 cm (1- to 4-leaf stage) for postemergence treatments. Treated plants and controls were maintained in a greenhouse for 14 to 21 d, after which time all species were compared to controls and visually evaluated. Plant response ratings, summarized in Table E, are based on a scale of 0 to 100 where 0 is no effect and 100 is complete control. A dash (-) response means no test result.

[9] = system: crabgrass, Brazil (Brazilian crabgrass, Digitaria horizontalis); assay: Test E preemergence; conditions: scale 0 to 100
Description: as §2, §3

[10] = system: foxtail, giant (giant foxtail, Setaria faberii); assay: Test E preemergence; conditions: scale 0 to 100
Description: as §2, §3

[11] = system: goosegrass (Eleusine indica); assay: Test E preemergence; conditions: scale 0 to 100
Description: as §2, §3

[12] = system: morningglory (Ipomoea coccinea); assay: Test E preemergence; conditions: scale 0 to 100
Description: as §2, §3

[13] = system: nightshade (eastern black nightshade, Solanum ptycanthum); assay: Test E preemergence; conditions: scale 0 to 100
Description: as §2, §3

[14] = system: ryegrass, Italian (Italian ryegrass, Lolium multiflorum); assay: Test E preemergence; conditions: scale 0 to 100
Description: as §2, §3

CN1C[C@H](c2ccc(F)c(F)c2)[C@@H](C(=O)Nc2ccccc2F)C1=O [Compound 596, (3S,4S)-4-(3,4-difluorophenyl)-N-(2-fluorophenyl)-1-methyl-2-oxo-3-pyrrolidinecarboxamide]
50: Plant response rating, Ragweed ([6]; 125 g ai/ha) | Plant response rating, Wheat ([7]; 125 g ai/ha) | Plant response rating: Ryegrass, Italian ([14]; 250 g ai/ha)
65: Plant response rating: Goosegrass ([11]; 250 g ai/ha)
15: Plant response rating (scale of 0 to 100), Wheat ([7]; 31 g ai/ha)
95: Plant response rating: Crabgrass, Brazil ([9]; 62 g ai/ha) | Plant response rating: Foxtail, Giant ([10]; 31 g ai/ha) | Plant response rating: Foxtail, Giant ([10]; 62 g ai/ha)
30: Plant response rating (scale of 0 to 100), Galium ([1]; 31 g ai/ha)
0: Plant response rating (scale of 0 to 100), Corn (corn (Zea mays); 31 g ai/ha) | Plant response rating, Corn (corn (Zea mays); 62 g ai/ha) | Plant response rating, Corn (corn (Zea mays); 125 g ai/ha) | Plant response rating (scale of 0 to 100), Morningglory ([3]; 31 g ai/ha) | Plant response rating, Morningglory ([3]; 62 g ai/ha) | Plant response rating (scale of 0 to 100), Nutsedge, Yellow ([4]; 31 g ai/ha) | Plant response rating, Nutsedge, Yellow ([4]; 62 g ai/ha) | Plant response rating, Nutsedge, Yellow ([4]; 125 g ai/ha) | Plant response rating, Nutsedge, Yellow ([4]; 250 g ai/ha) | Plant response rating: Beggarticks ([8]; 31 g ai/ha) | Plant response rating: Beggarticks ([8]; 62 g ai/ha) | Plant response rating: Beggarticks ([8]; 125 g ai/ha) | Plant response rating: Beggarticks ([8]; 250 g ai/ha) | Plant response rating: Morningglory ([12]; 31 g ai/ha) | Plant response rating: Morningglory ([12]; 62 g ai/ha) | Plant response rating: Morningglory ([12]; 125 g ai/ha) | Plant response rating: Morningglory ([12]; 250 g ai/ha) | Plant response rating: Nightshade ([13]; 31 g ai/ha) | Plant response rating: Nightshade ([13]; 62 g ai/ha) | Plant response rating: Nightshade ([13]; 125 g ai/ha) | Plant response rating: Ryegrass, Italian ([14]; 31 g ai/ha) | Plant response rating: Ryegrass, Italian ([14]; 62 g ai/ha)
70: Plant response rating, Johnsongrass ([2]; 125 g ai/ha) | Plant response rating, Wheat ([7]; 250 g ai/ha)
25: Plant response rating, Johnsongrass ([2]; 62 g ai/ha) | Plant response rating, Pigweed ([5]; 62 g ai/ha) | Plant response rating: Goosegrass ([11]; 125 g ai/ha)
35: Plant response rating, Corn (corn (Zea mays); 250 g ai/ha) | Plant response rating: Ryegrass, Italian ([14]; 125 g ai/ha)
40: Plant response rating, Galium ([1]; 125 g ai/ha) | Plant response rating, Pigweed ([5]; 125 g ai/ha)
100: Plant response rating: Crabgrass, Brazil ([9]; 31 g ai/ha) | Plant response rating: Crabgrass, Brazil ([9]; 125 g ai/ha) | Plant response rating: Crabgrass, Brazil ([9]; 250 g ai/ha)
85: Plant response rating, Galium ([1]; 62 g ai/ha) | Plant response rating, Galium ([1]; 250 g ai/ha)
60: Plant response rating: Nightshade ([13]; 250 g ai/ha)
75: Plant response rating, Johnsongrass ([2]; 250 g ai/ha) | Plant response rating, Ragweed ([6]; 250 g ai/ha)
20: Plant response rating (scale of 0 to 100), Johnsongrass ([2]; 31 g ai/ha) | Plant response rating, Morningglory ([3]; 250 g ai/ha) | Plant response rating (scale of 0 to 100), Pigweed ([5]; 31 g ai/ha) | Plant response rating, Ragweed ([6]; 62 g ai/ha)
10: Plant response rating, Morningglory ([3]; 125 g ai/ha) | Plant response rating (scale of 0 to 100), Ragweed ([6]; 31 g ai/ha)
98: Plant response rating: Foxtail, Giant ([10]; 125 g ai/ha) | Plant response rating: Foxtail, Giant ([10]; 250 g ai/ha)
55: Plant response rating, Pigweed ([5]; 250 g ai/ha)
45: Plant response rating, Wheat ([7]; 62 g ai/ha)
5: Plant response rating: Goosegrass ([11]; 31 g ai/ha) | Plant response rating: Goosegrass ([11]; 62 g ai/ha)

CN1C[C@H](c2ccc(C(F)(F)F)cc2)[C@@H](C(=O)Nc2cccc(F)c2F)C1=O [Compound 623, (3S,4S)—N-(2,3-difluorophenyl)-1-methyl-2-oxo-4-[4-(trifluoromethyl)phenyl]-3-pyrrolidinecarboxamide]
95: Plant response rating: Foxtail, Giant ([10]; 31 g ai/ha) | Plant response rating: Foxtail, Giant ([10]; 62 g ai/ha) | Plant response rating: Foxtail, Giant ([10]; 125 g ai/ha) | Plant response rating: Foxtail, Giant ([10]; 250 g ai/ha) | Plant response rating: Goosegrass ([11]; 31 g ai/ha)
65: Plant response rating, Corn (corn (Zea mays); 62 g ai/ha)
0: Plant response rating (scale of 0 to 100), Morningglory ([3]; 8 g ai/ha) | Plant response rating (scale of 0 to 100), Morningglory ([3]; 16 g ai/ha) | Plant response rating (scale of 0 to 100), Nutsedge, Yellow ([4]; 8 g ai/ha) | Plant response rating (scale of 0 to 100), Nutsedge, Yellow ([4]; 16 g ai/ha) | Plant response rating (scale of 0 to 100), Nutsedge, Yellow ([4]; 31 g ai/ha) | Plant response rating, Nutsedge, Yellow ([4]; 62 g ai/ha) | Plant response rating (scale of 0 to 100), Ragweed ([6]; 8 g ai/ha) | Plant response rating (scale of 0 to 100), Wheat ([7]; 16 g ai/ha) | Plant response rating: Beggarticks ([8]; 31 g ai/ha) | Plant response rating: Beggarticks ([8]; 62 g ai/ha) | Plant response rating: Beggarticks ([8]; 125 g ai/ha) | Plant response rating: Morningglory ([12]; 31 g ai/ha) | Plant response rating: Morningglory ([12]; 62 g ai/ha) | Plant response rating: Morningglory ([12]; 125 g ai/ha) | Plant response rating: Morningglory ([12]; 250 g ai/ha)
30: Plant response rating (scale of 0 to 100), Corn (corn (Zea mays); 16 g ai/ha)
90: Plant response rating (scale of 0 to 100), Galium ([1]; 8 g ai/ha) | Plant response rating, Galium ([1]; 62 g ai/ha) | Plant response rating: Ryegrass, Italian ([14]; 250 g ai/ha)
60: Plant response rating (scale of 0 to 100), Corn (corn (Zea mays); 31 g ai/ha) | Plant response rating: Ryegrass, Italian ([14]; 125 g ai/ha)
10: Plant response rating (scale of 0 to 100), Corn (corn (Zea mays); 8 g ai/ha)
70: Plant response rating, Johnsongrass ([2]; 62 g ai/ha) | Plant response rating: Nightshade ([13]; 125 g ai/ha) | Plant response rating: Nightshade ([13]; 250 g ai/ha)
85: Plant response rating (scale of 0 to 100), Galium ([1]; 16 g ai/ha) | Plant response rating (scale of 0 to 100), Galium ([1]; 31 g ai/ha) | Plant response rating (scale of 0 to 100), Pigweed ([5]; 16 g ai/ha) | Plant response rating (scale of 0 to 100), Pigweed ([5]; 31 g ai/ha) | Plant response rating, Pigweed ([5]; 62 g ai/ha)
40: Plant response rating (scale of 0 to 100), Wheat ([7]; 31 g ai/ha)
35: Plant response rating, Wheat ([7]; 62 g ai/ha) | Plant response rating: Beggarticks ([8]; 250 g ai/ha) | Plant response rating: Nightshade ([13]; 62 g ai/ha)
75: Plant response rating (scale of 0 to 100), Pigweed ([5]; 8 g ai/ha) | Plant response rating, Ragweed ([6]; 62 g ai/ha)
20: Plant response rating (scale of 0 to 100), Ragweed ([6]; 16 g ai/ha) | Plant response rating (scale of 0 to 100), Wheat ([7]; 8 g ai/ha)
98: Plant response rating: Crabgrass, Brazil ([9]; 31 g ai/ha) | Plant response rating: Crabgrass, Brazil ([9]; 62 g ai/ha) | Plant response rating: Crabgrass, Brazil ([9]; 125 g ai/ha) | Plant response rating: Crabgrass, Brazil ([9]; 250 g ai/ha) | Plant response rating: Goosegrass ([11]; 62 g ai/ha) | Plant response rating: Goosegrass ([11]; 125 g ai/ha) | Plant response rating: Goosegrass ([11]; 250 g ai/ha)
50: Plant response rating (scale of 0 to 100), Johnsongrass ([2]; 8 g ai/ha) | Plant response rating (scale of 0 to 100), Johnsongrass ([2]; 31 g ai/ha) | Plant response rating: Ryegrass, Italian ([14]; 62 g ai/ha)
25: Plant response rating (scale of 0 to 100), Morningglory ([3]; 31 g ai/ha) | Plant response rating: Ryegrass, Italian ([14]; 31 g ai/ha)
45: Plant response rating (scale of 0 to 100), Ragweed ([6]; 31 g ai/ha)
15: Plant response rating (scale of 0 to 100), Johnsongrass ([2]; 16 g ai/ha) | Plant response rating, Morningglory ([3]; 62 g ai/ha)
